From patent publication US9023789B2, “Amylin analogs and pharmaceutical compositions thereof” (Novo Nordisk A/S, priority 2012, dated 2015)
Numbered stars: 1 amine (or outer) side, 2 acyl side, 3 side chain; on linkers, the order of the positions; unused ones are H or OH. Bridge positions count the residues as written; N and C are the ends. Side chains are listed from the residue outwards. Peptide text beside a SMILES is read from it. * marks the point of attachment. C20 diacid = O=C(O)CCCCCCCCCCCCCCCCCCC(=O)*; γGlu = O=C(O)[C@H](CCC(=O)[*:2])N[*:1]

Experiments:
[1] = target: T1, human amylin 3(a) receptor (human calcitonin receptor + RAMP-3) in BHK570 cells (Homo sapiens, UniProt O60896+P30988); experiment: ASSAY (II)a functional assay, human amylin receptor (CRE luciferase); format: cell-based; settings: for EC50: human amylin receptor functional potency, assay (II), read-out: hAmylin-R funct. EC50
T1 construct: expressed in transfected cells
How it was run: (§1)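 Cells were seeded and cultured overnight, then incubated with standard or sample for 3 h at 37° C in serum-containing medium at pH 7.4. The medium was then swapped for PBS, LucLite was added for 30 min at room temperature, and luminescence was recorded. Cells were BHK with CRE-luc and calcitonin receptor, ± RAMP-3.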

[2] = target: T2, human calcitonin (a) receptor in BHK570 cells (Homo sapiens, UniProt P30988); experiment: ASSAY (II)a functional assay, human calcitonin receptor (CRE luciferase); format: cell-based; settings: read-out: hCTR funct. EC50
T2 construct: expressed in transfected cells
T2 sequence (P30988 25-474): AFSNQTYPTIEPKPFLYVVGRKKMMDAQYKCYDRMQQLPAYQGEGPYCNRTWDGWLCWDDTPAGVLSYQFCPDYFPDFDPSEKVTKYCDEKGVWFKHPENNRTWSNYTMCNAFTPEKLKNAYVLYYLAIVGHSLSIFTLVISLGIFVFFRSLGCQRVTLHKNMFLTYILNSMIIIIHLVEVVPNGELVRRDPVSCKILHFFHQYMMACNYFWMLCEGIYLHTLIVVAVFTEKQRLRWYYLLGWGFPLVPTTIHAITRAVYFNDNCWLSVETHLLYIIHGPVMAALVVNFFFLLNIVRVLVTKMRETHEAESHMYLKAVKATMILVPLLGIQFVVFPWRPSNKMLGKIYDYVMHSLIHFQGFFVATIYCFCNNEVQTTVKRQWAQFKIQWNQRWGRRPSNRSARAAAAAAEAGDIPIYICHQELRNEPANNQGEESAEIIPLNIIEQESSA
How it was run: as §1

[3] = target: T3, human amylin receptor (membranes from Amylin 3(a)/CRE-luc cells) (Homo sapiens, UniProt O60896+P30988); experiment: ASSAY (V) binding to the human amylin receptor (SPA, 125I-rat amylin); settings: for IC50: Table 4, read-out: hAmylin-R bind IC50;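 on all read-outs here: competition binding of cell membranes (35 ng/µL) mixed with SPA beads in 384-well plates at 40 µL total volume, read by scintillation counting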
T3 construct: expressed in transfected cells
T3 sequence (P30988 25-474): T2 sequence (P30988 25-474)
T3 sequence (O60896 24-148 partner): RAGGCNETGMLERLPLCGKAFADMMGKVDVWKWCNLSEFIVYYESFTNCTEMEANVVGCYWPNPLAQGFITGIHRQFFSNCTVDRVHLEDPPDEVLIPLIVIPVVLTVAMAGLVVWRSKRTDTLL

[4] = target: T4, rat amylin receptor (rat calcitonin receptor + rat RAMP 3) (Rattus norvegicus, UniProt P32214+Q9JJ73); experiment: ASSAY (VI) binding to the rat amylin receptor; settings: for IC50: binding to rat amylin receptor, read-out: rAmylin-R bind IC50
T4 construct: expressed in transfected cells; host or cells: BHK tk'ts 13 (transient, FuGENE 6), membranes
T4 sequence (P32214 25-479 isoform P32214-2 limits assumed): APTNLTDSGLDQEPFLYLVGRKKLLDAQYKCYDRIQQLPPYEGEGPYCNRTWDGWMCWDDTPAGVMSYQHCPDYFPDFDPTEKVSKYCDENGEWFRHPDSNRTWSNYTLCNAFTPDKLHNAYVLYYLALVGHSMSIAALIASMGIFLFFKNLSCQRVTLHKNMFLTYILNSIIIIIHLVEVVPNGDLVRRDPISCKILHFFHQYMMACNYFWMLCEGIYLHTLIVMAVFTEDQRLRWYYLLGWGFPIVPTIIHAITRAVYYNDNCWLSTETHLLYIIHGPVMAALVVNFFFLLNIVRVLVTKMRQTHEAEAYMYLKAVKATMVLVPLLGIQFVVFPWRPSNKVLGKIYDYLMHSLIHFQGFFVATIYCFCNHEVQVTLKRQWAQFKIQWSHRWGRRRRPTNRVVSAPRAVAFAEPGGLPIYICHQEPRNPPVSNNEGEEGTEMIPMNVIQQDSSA
T4 sequence (Q9JJ73 23-147 partner): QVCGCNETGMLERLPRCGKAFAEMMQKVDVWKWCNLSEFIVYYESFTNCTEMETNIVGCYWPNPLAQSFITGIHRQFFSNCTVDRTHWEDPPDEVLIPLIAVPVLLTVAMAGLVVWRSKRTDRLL
How it was run: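 Binding to the rat amylin receptor was determined with membrane preparations. The receptor was expressed by transiently transfecting BHK tk′ts 13 cells with rat calcitonin receptor, using FuGENE® 6 (Roche) according to the manufacturer's recommendations. Roughly 48 hours later the cells were harvested and their membranes isolated.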

[5] = target: T5, human calcitonin receptor (Homo sapiens, UniProt P30988); experiment: ASSAY (VII) binding to the human calcitonin receptor (SPA, 125I-Calcitonin); settings: read-out: hCTR bind IC50;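 further: cell membranes (35 ng/µL) combined with SPA beads in 40 µL of pH 7.4 Hepes buffer, 384-well format, signal counted on a TopCounter instrument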
T5 construct: expressed in transfected cells
T5 sequence (P30988 25-474): T2 sequence (P30988 25-474)

rat calcitonin receptor = target: T6, rat calcitonin receptor (Rattus norvegicus, UniProt P32214); experiment: ASSAY (VIII) binding to the rat calcitonin receptor; settings: Table 7, read-out: rCTR bind IC50
T6 construct: expressed in transfected cells; host or cells: BHK tk'ts 13 (transient, FuGENE 6), membranes
T6 sequence (P32214 25-479 isoform P32214-2 limits assumed): T4 sequence (P32214 25-479 isoform P32214-2 limits assumed)
How it was run: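 Membranes were prepared from BHK tk′ts 13 cells transiently transfected with rat calcitonin receptor. Cells were grown in DMEM with 10% FBS and harvested approximately 48 hours after transfection.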

[6] = ASSAY (X) pK, determination of T½ in rat; format: in vivo; settings: male, Sprague Dawley, plasma, iv, 20 nmol/kg
[7] = hCTR funct. EC50 divided by hAmylin-R funct. EC50
[8] = hCTR funct. EC50 over hAmylin-R funct. EC50
[9] = human functional selectivity: hCTR funct. EC50 / hAmylin-R funct. EC50
[10] = Table 5, selectivity, hCTR bind IC50 / hAmylin-R bind IC50
[11] = Table 5a, selectivity, hCTR bind IC50 / hAmylin-R bind IC50
[12] = Table 5b, selectivity, hCTR bind IC50 / hAmylin-R bind IC50
[13] = Table 5c, selectivity, hCTR bind IC50 / hAmylin-R bind IC50
[14] = Table 7, human binding selectivity, included for comparison
[15] = Table 7a (preferred compounds), human binding selectivity, included for comparison
[16] = ratio of human calcitonin receptor binding IC50 to human amylin receptor binding IC50
[17] = Table 7, rat binding selectivity, rCTR IC50 / rAmylin-R IC50
[18] = Table 7a (preferred compounds), rat binding selectivity, rCTR IC50 / rAmylin-R IC50
[19] = ratio of rCTR bind IC50 to rAmylin-R bind IC50

Row | Compound | Ratio hCT/hAmylin funct. [1, 7] | Ratio hCT/hAmylin funct. [1, 8] | EC50 [1] [nM] | Ratio hCT/hAmylin funct. [1, 9] | EC50 [2] [nM] | IC50 [3] [nM] | Ratio hCT/hAmylin binding [3, 10] | Ratio hCT/hAmylin binding [3, 11] | Ratio hCT/hAmylin binding [3, 12] | Ratio hCT/hAmylin binding [3, 13] | Ratio hCT/hAmylin binding [3, 14] | Ratio hCT/hAmylin binding [3, 15] | Ratio hCT/hAmylin binding [3, 16] | IC50 ([4]; Table 7) [nM] | Ratio rCT/rAmylin binding [4, 17] | Ratio rCT/rAmylin binding [4, 18] | Ratio rCT/rAmylin binding [4, 19] | IC50 [5] [nM] | IC50 (rat calcitonin receptor) [nM] | half-life [6] [h]
1 | CC[C@H](C)[C@H](NC(=O)[C@H](C)NC(=O)CNC(=O)[C@H](Cc1ccccc1)NC(=O)[C@H](CC(N)=O)NC(=O)[C@@H]1CCCN1C(=O)[C@H](CO)NC(=O)[C@H](CO)NC(=O)[C@H](Cc1c[nH]cn1)NC(=O)[C@H](CCCNC(=N)N)NC(=O)[C@H](CC(C)C)NC(=O)[C@H](Cc1ccccc1)NC(=O)[C@H](CCC(=O)O)NC(=O)[C@H](C)NC(=O)[C@H](CC(C)C)NC(=O)[C@H](CCCNC(=N)N)NC(=O)[C@H](CCC(N)=O)NC(=O)[C@@H](NC(=O)[C@H](C)NC(=O)[C@@H]1CSSC[C@H](NC(=O)[C@@H](N)CCCCNC(=O)CC[C@H](NC(=O)CC[C@H](NC(=O)CCCCCCCCCCCCCCCCCCC(=O)O)C(=O)O)C(=O)O)C(=O)N[C@@H](CC(N)=O)C(=O)N[C@@H]([C@@H](C)O)C(=O)N[C@@H](C)C(=O)N[C@@H]([C@@H](C)O)C(=O)N1)[C@@H](C)O)C(=O)N1CCC[C@H]1C(=O)N[C@@H](CO)C(=O)N[C@@H](CO)C(=O)N[C@H](C(=O)N[C@@H](CC(N)=O)C(=O)N[C@H](C(=O)NCC(=O)N[C@@H](CO)C(=O)N[C@@H](CCCNC(=N)N)C(=O)N[C@H](C(=O)N[C@@H](Cc1ccc(O)cc1)C(N)=O)[C@@H](C)O)C(C)C)[C@@H](C)O [Example 89] (H-K([γGlu-γGlu-C20 diacid])CNTATCATQRLAEFLRHSSPNFGAIPSSTNVGSRTY-NH2; disulfide 2-7 (inferred); N-terminus assumed) | 27.8 | 27.8 | 0.404 | 27.8 | 11.2 | 1.16 | 28.0 | 28.0 | 28.0 | 28.0 | 28.0 | 28.0 | 28.0 | 2.37 | 48.8 | 48.8 | 48.8 | 32.5 | 115 | 23
2 | CC[C@H](C)[C@H](NC(=O)[C@H](C)NC(=O)CNC(=O)[C@H](Cc1ccccc1)NC(=O)[C@H](CC(N)=O)NC(=O)[C@@H]1CCCN1C(=O)[C@H](CO)NC(=O)[C@H](CO)NC(=O)[C@H](Cc1c[nH]cn1)NC(=O)[C@H](CCCNC(=N)N)NC(=O)[C@H](CC(C)C)NC(=O)[C@H](Cc1ccccc1)NC(=O)[C@H](CCC(=O)O)NC(=O)[C@H](C)NC(=O)[C@H](CC(C)C)NC(=O)[C@H](CCCNC(=N)N)NC(=O)[C@H](CCC(N)=O)NC(=O)[C@@H](NC(=O)[C@H](C)NC(=O)[C@@H]1CSSC[C@H](NC(=O)[C@@H](N)CCCCNC(=O)CC[C@H](NC(=O)CC[C@H](NC(=O)CCCCCCCCCCCCCCCCCCC(=O)O)C(=O)O)C(=O)O)C(=O)N[C@@H](CC(N)=O)C(=O)N[C@@H]([C@@H](C)O)C(=O)N[C@@H](C)C(=O)N[C@@H]([C@@H](C)O)C(=O)N1)[C@@H](C)O)C(=O)N1CCC[C@H]1C(=O)N[C@@H](CO)C(=O)N[C@@H](CO)C(=O)N[C@H](C(=O)N[C@@H](CC(N)=O)C(=O)N[C@H](C(=O)NCC(=O)N1CCC[C@H]1C(=O)N[C@@H](CCC(=O)O)C(=O)N[C@H](C(=O)N[C@@H](Cc1ccc(O)cc1)C(N)=O)[C@@H](C)O)C(C)C)[C@@H](C)O [Example 106] (H-K([γGlu-γGlu-C20 diacid])CNTATCATQRLAEFLRHSSPNFGAIPSSTNVGPETY-NH2; disulfide 2-7; N-terminus assumed) | 10.5 | 10.5 | 0.225 | 10.5 | 2.36 | 0.121 | 17.6 | 17.6 | 17.6 |  | 17.6 | 17.6 | 17.6 | 0.182 | 88.5 | 88.5 | 88.5 | 2.14 | 16.1 | 37
3 | CC[C@H](C)[C@H](NC(=O)[C@H](C)NC(=O)CNC(=O)[C@H](Cc1ccccc1)NC(=O)[C@H](CC(N)=O)NC(=O)[C@@H]1CCCN1C(=O)[C@H](CO)NC(=O)[C@H](CO)NC(=O)[C@H](Cc1c[nH]cn1)NC(=O)[C@H](CCCNC(=N)N)NC(=O)[C@H](CC(C)C)NC(=O)[C@H](Cc1ccccc1)NC(=O)[C@H](CCC(=O)O)NC(=O)[C@H](C)NC(=O)[C@H](CC(C)C)NC(=O)[C@H](CCCNC(=N)N)NC(=O)[C@H](CCC(N)=O)NC(=O)[C@@H](NC(=O)[C@H](C)NC(=O)[C@@H]1CSSC[C@H](NC(=O)[C@@H](N)CCCCNC(=O)CC[C@H](NC(=O)CC[C@H](NC(=O)CCCCCCCCCCCCCCCCCCC(=O)O)C(=O)O)C(=O)O)C(=O)N[C@@H](CC(N)=O)C(=O)N[C@@H]([C@@H](C)O)C(=O)N[C@@H](C)C(=O)N[C@@H]([C@@H](C)O)C(=O)N1)[C@@H](C)O)C(=O)N1CCC[C@H]1C(=O)N[C@@H](CO)C(=O)N[C@@H](CO)C(=O)N[C@H](C(=O)N[C@@H](CC(N)=O)C(=O)N[C@H](C(=O)NCC(=O)N1CCC[C@H]1C(=O)N[C@@H](CCCNC(=N)N)C(=O)N[C@H](C(=O)N[C@@H](Cc1ccc(O)cc1)C(N)=O)[C@@H](C)O)C(C)C)[C@@H](C)O [Example 110] (H-K([γGlu-γGlu-C20 diacid])CNTATCATQRLAEFLRHSSPNFGAIPSSTNVGPRTY-NH2; disulfide 2-7) | 29.3 | 29.3 | 0.278 | 29.3 | 8.16 | 0.326 | 53.6 | 53.6 | 53.6 | 53.6 | 53.6 | 53.6 | 53.6 | 0.339 | 112.9 | 112.9 | 112.9 | 17.5 | 38.3 | 14
